Tests used:
D(1A) dopamine receptor = D(1A) dopamine receptor (Homo sapiens, UniProt P21728); assay: Displacement of [3H]SCH23390 from D1 receptor
[1] = target: T1, 5-hydroxytryptamine receptor 1A (Homo sapiens, UniProt P08908); assay: Displacement of [3H]8-OH-DPAT from 5HT1A receptor
T1 sequence (P08908 whole entry): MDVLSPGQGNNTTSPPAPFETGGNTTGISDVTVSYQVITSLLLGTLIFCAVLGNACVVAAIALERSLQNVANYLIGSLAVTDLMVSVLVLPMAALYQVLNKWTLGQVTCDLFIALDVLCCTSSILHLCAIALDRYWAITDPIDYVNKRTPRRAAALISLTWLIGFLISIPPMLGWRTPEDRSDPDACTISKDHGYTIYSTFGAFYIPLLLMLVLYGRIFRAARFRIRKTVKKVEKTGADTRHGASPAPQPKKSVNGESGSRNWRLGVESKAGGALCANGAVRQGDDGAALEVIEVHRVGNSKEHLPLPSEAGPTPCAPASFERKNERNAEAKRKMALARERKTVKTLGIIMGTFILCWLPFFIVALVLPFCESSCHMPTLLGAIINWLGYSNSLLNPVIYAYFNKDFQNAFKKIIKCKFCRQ

cells = details: Homo sapiens, HEK293
Description: Antagonist activity at human D2 like receptor expressed in HEK293 cells assessed as inhibition of quinpirole-stimulated mitogenesis

D(4) dopamine receptor = target: T2, D(4) dopamine receptor (Homo sapiens, UniProt P21917); assay: biochemical
T2 sequence (P21917 whole entry): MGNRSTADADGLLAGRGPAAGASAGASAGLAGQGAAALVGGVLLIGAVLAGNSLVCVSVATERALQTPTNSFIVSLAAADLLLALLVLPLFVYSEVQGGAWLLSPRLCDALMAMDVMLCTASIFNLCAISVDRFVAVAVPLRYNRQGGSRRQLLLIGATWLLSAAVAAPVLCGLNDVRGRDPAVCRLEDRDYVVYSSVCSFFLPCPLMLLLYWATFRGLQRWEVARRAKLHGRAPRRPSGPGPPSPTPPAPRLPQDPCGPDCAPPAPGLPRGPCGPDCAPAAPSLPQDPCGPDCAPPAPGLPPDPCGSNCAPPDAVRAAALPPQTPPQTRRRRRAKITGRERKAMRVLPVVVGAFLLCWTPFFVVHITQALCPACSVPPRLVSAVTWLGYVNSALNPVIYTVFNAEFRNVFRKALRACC

D(3) dopamine receptor [2] = target: T3, D(3) dopamine receptor (Homo sapiens, UniProt P35462); assay: biochemical
Homo sapiens = organism: Homo sapiens; assay: Selectivity of IC50 for human D2 like receptor to IC50 for human D3 receptor
D(3) dopamine receptor [3] = target: T3, D(3) dopamine receptor; assay: Agonist activity at human D3 receptor expressed in HEK293 cells assessed as stimulation of mitogenesis relative to quinpirole; assay type: functional, cell-based; design: concentration or dose not given beside the values
D(3) dopamine receptor [4] = target: T3, D(3) dopamine receptor
[5] = Antagonist activity at human D3 receptor expressed in HEK293 cells assessed as inhibition of quinpirole-stimulated mitogenesis

T3 sequence (P35462 whole entry): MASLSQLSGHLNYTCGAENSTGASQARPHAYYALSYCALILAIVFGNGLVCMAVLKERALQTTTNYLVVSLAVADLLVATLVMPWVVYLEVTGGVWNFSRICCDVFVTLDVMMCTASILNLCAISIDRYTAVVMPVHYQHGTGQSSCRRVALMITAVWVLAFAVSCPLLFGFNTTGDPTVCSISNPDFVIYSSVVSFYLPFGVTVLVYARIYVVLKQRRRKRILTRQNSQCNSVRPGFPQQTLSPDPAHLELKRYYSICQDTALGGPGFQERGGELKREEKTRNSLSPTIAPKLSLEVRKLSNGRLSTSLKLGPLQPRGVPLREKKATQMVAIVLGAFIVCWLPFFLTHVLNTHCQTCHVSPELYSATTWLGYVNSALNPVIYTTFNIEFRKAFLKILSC
D(1A) dopamine receptor, sequence (P21728 whole entry): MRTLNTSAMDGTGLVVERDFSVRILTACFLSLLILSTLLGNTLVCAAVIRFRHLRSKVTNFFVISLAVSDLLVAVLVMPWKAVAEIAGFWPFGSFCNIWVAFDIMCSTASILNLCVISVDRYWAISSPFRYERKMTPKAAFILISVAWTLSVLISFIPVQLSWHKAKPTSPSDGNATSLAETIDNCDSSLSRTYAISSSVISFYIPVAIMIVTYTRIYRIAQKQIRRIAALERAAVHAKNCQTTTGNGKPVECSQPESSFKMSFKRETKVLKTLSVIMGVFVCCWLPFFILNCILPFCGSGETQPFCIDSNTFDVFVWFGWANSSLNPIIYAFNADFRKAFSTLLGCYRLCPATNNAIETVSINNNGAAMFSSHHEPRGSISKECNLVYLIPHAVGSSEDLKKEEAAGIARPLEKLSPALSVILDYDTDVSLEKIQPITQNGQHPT

Ki (D(1A) dopamine receptor) | IC50 (cells) | Ki (D(4) dopamine receptor) | Ki (D(3) dopamine receptor [2]) | Compound | other results
> 10 µM |  |  |  | O=C(NCC[C@@H](O)CN1CCN(c2cccc(Cl)c2Cl)CC1)c1cc2ccccc2[nH]1 | 
> 10 µM | 0.34 µM | 1.04 µM |  | O=C(NCC(O)CCN1CCN(c2cccc(Cl)c2Cl)CC1)c1cc2ccccc2[nH]1 (stereo unspecified) | Ki [1]: 0.0583 µM
0.91 µM | 0.175 µM | 0.64 µM | 0.00044 µM | O=C(NC/C=C/CN1CCN(c2cccc(Cl)c2Cl)CC1)c1cc2ccccc2[nH]1 | Ki [1]: 0.193 µM
4.96 µM | 0.162 µM |  |  | CCCOc1ccccc1N1CCN(CC(O)CCNC(=O)c2cc3ccccc3[nH]2)CC1 (stereo unspecified) | 
 |  | 0.176 µM | 0.00051 µM | COc1ccccc1N1CCN(CCC(O)CNC(=O)c2cc3ccccc3[nH]2)CC1 (stereo unspecified) | 
> 10 µM |  | > 10 µM | 0.00611 µM | O=C(NCCC(O)CN1CCN(c2cccc(Cl)c2Cl)CC1)c1cc2ccccc2o1 (stereo unspecified) | Activity (D(3) dopamine receptor [3]): 22.6%
 |  | 0.476 µM |  | COc1ccccc1N1CCN(CCCCNC(=O)c2cc3ccccc3[nH]2)CC1 | Ki (D(3) dopamine receptor [4]): 0.00032 µM
> 10 µM |  | 0.455 µM | 0.0036 µM | COc1ccccc1N1CCN(CC(O)CCNC(=O)c2cc3cc(I)ccc3[nH]2)CC1 (stereo unspecified) | 
0.9 µM | 0.17 µM | 0.335 µM | 0.00072 µM | COc1ccccc1N1CCN(CCCCNC(=O)c2cc3cc(I)ccc3o2)CC1 | 
0.99 µM |  |  | 0.0113 µM | COc1ccccc1N1CCN(C/C=C/CNC(=O)c2cc3ccccc3o2)CC1 | 
> 10 µM |  | > 10 µM | 0.00521 µM | O=C(NCCC(O)CN1CCN(c2cccc(Cl)c2Cl)CC1)c1cc2cc(I)ccc2[nH]1 (stereo unspecified) | Activity (D(3) dopamine receptor [3]): 26%
> 10 µM |  | 1.53 µM | 0.00232 µM | COc1ccc2[nH]c(C(=O)NCCC(O)CN3CCN(c4ccccc4OC)CC3)cc2c1 (stereo unspecified) | fold change (FC) (Homo sapiens): > 100
> 10 µM |  |  |  | O=C(NCC[C@H](O)CN1CCN(c2cccc(Cl)c2Cl)CC1)c1cc2ccccc2[nH]1 | Activity (D(3) dopamine receptor [3]): 42.2%
> 10 µM | 0.427 µM |  |  | COc1ccccc1N1CCN(CC(O)CCNC(=O)c2cc3ccccc3[nH]2)CC1 (stereo unspecified) | Ki [1]: 0.132 µM
3.69 µM | 0.405 µM | 1.29 µM | 0.0075 µM | COc1ccccc1N1CCN(CC(O)CCNC(=O)c2cc3cc(I)ccc3o2)CC1 (stereo unspecified) | 
> 10 µM |  | > 10 µM | 0.00771 µM | O=C(NCCC(O)CN1CCN(c2cccc(Cl)c2Cl)CC1)c1cc2cc(I)ccc2o1 (stereo unspecified) | Activity (D(3) dopamine receptor [3]): 23.6%
5.06 µM | 0.27 µM | 0.967 µM | 0.00241 µM | COc1ccccc1N1CCN(CC(O)CCNC(=O)c2cc3cc(F)ccc3[nH]2)CC1 (stereo unspecified) | fold change (FC) (Homo sapiens): 100
> 10 µM |  | 2.14 µM | 0.00751 µM | COc1ccccc1N1CCN(CC(O)CCNC(=O)c2cc3ccccc3o2)CC1 (stereo unspecified) | 
0.678 µM |  |  | 0.00261 µM | COc1ccccc1N1CCN(C/C=C/CNC(=O)c2cc3ccccc3s2)CC1 | 
1.46 µM | 0.111 µM |  |  | O=C(NC/C=C/CN1CCN(c2cccc(Cl)c2Cl)CC1)c1cc2ccccc2o1 | Ki [1]: 0.0588 µM
> 10 µM |  | > 10 µM | 0.0012 µM | COc1ccc2[nH]c(C(=O)NCCC(O)CN3CCN(c4cccc(Cl)c4Cl)CC3)cc2c1 (stereo unspecified) | Activity (D(3) dopamine receptor [3]): 34.9%; fold change (FC) (Homo sapiens): > 100
6.65 µM | 0.146 µM |  |  | COc1ccccc1N1CCN(CC(O)CCNC(=O)c2cc3ccccc3s2)CC1 (stereo unspecified) | 

Compound | Ki (D(1A) dopamine receptor) | IC50 (cells) | Ki (D(4) dopamine receptor) | Ki (D(3) dopamine receptor [2]) | other results
COc1ccccc1N1CCN(CCCCNC(=O)c2cc3ccccc3s2)CC1 |  | 0.0214 µM |  |  | fold change (FC) (Homo sapiens): 100
O=C(NCCCCN1CCN(c2cccc(Cl)c2Cl)CC1)c1cc2cc(I)ccc2o1 | 2.92 µM | 1.03 µM | 1.72 µM |  | 
O=C(NCCC(O)CN1CCN(c2cccc(Cl)c2Cl)CC1)c1cc2cc(F)ccc2[nH]1 (stereo unspecified) | > 10 µM |  | > 5 µM |  | 
O=C(NC/C=C/CN1CCN(c2cccc(Cl)c2Cl)CC1)c1cc2ccccc2s1 | 1.73 µM | 0.254 µM |  |  | Ki [1]: 0.388 µM; IC50 [5]: 0.00962 µM
